Experimental data reported in PubChem BioAssay AID743469 (Vanderbilt Specialized Chemistry Center, 2014).
pIC50: −log10 of the molar value. Calls of active or inactive are those of the source. The rule behind the calls is not given here.

Target: Histone-lysine N-methyltransferase 2A (Homo sapiens) (UniProt Q03164)
Assay: disruptors of menin binding to MLL peptide – biochemical, fluorescence polarization, SAR follow-up (AID 743469)
Details: menin + fluorescein MLL peptide

Chain of Histone-lysine N-methyltransferase 2A (Homo sapiens) (Q03164 whole entry, looked up): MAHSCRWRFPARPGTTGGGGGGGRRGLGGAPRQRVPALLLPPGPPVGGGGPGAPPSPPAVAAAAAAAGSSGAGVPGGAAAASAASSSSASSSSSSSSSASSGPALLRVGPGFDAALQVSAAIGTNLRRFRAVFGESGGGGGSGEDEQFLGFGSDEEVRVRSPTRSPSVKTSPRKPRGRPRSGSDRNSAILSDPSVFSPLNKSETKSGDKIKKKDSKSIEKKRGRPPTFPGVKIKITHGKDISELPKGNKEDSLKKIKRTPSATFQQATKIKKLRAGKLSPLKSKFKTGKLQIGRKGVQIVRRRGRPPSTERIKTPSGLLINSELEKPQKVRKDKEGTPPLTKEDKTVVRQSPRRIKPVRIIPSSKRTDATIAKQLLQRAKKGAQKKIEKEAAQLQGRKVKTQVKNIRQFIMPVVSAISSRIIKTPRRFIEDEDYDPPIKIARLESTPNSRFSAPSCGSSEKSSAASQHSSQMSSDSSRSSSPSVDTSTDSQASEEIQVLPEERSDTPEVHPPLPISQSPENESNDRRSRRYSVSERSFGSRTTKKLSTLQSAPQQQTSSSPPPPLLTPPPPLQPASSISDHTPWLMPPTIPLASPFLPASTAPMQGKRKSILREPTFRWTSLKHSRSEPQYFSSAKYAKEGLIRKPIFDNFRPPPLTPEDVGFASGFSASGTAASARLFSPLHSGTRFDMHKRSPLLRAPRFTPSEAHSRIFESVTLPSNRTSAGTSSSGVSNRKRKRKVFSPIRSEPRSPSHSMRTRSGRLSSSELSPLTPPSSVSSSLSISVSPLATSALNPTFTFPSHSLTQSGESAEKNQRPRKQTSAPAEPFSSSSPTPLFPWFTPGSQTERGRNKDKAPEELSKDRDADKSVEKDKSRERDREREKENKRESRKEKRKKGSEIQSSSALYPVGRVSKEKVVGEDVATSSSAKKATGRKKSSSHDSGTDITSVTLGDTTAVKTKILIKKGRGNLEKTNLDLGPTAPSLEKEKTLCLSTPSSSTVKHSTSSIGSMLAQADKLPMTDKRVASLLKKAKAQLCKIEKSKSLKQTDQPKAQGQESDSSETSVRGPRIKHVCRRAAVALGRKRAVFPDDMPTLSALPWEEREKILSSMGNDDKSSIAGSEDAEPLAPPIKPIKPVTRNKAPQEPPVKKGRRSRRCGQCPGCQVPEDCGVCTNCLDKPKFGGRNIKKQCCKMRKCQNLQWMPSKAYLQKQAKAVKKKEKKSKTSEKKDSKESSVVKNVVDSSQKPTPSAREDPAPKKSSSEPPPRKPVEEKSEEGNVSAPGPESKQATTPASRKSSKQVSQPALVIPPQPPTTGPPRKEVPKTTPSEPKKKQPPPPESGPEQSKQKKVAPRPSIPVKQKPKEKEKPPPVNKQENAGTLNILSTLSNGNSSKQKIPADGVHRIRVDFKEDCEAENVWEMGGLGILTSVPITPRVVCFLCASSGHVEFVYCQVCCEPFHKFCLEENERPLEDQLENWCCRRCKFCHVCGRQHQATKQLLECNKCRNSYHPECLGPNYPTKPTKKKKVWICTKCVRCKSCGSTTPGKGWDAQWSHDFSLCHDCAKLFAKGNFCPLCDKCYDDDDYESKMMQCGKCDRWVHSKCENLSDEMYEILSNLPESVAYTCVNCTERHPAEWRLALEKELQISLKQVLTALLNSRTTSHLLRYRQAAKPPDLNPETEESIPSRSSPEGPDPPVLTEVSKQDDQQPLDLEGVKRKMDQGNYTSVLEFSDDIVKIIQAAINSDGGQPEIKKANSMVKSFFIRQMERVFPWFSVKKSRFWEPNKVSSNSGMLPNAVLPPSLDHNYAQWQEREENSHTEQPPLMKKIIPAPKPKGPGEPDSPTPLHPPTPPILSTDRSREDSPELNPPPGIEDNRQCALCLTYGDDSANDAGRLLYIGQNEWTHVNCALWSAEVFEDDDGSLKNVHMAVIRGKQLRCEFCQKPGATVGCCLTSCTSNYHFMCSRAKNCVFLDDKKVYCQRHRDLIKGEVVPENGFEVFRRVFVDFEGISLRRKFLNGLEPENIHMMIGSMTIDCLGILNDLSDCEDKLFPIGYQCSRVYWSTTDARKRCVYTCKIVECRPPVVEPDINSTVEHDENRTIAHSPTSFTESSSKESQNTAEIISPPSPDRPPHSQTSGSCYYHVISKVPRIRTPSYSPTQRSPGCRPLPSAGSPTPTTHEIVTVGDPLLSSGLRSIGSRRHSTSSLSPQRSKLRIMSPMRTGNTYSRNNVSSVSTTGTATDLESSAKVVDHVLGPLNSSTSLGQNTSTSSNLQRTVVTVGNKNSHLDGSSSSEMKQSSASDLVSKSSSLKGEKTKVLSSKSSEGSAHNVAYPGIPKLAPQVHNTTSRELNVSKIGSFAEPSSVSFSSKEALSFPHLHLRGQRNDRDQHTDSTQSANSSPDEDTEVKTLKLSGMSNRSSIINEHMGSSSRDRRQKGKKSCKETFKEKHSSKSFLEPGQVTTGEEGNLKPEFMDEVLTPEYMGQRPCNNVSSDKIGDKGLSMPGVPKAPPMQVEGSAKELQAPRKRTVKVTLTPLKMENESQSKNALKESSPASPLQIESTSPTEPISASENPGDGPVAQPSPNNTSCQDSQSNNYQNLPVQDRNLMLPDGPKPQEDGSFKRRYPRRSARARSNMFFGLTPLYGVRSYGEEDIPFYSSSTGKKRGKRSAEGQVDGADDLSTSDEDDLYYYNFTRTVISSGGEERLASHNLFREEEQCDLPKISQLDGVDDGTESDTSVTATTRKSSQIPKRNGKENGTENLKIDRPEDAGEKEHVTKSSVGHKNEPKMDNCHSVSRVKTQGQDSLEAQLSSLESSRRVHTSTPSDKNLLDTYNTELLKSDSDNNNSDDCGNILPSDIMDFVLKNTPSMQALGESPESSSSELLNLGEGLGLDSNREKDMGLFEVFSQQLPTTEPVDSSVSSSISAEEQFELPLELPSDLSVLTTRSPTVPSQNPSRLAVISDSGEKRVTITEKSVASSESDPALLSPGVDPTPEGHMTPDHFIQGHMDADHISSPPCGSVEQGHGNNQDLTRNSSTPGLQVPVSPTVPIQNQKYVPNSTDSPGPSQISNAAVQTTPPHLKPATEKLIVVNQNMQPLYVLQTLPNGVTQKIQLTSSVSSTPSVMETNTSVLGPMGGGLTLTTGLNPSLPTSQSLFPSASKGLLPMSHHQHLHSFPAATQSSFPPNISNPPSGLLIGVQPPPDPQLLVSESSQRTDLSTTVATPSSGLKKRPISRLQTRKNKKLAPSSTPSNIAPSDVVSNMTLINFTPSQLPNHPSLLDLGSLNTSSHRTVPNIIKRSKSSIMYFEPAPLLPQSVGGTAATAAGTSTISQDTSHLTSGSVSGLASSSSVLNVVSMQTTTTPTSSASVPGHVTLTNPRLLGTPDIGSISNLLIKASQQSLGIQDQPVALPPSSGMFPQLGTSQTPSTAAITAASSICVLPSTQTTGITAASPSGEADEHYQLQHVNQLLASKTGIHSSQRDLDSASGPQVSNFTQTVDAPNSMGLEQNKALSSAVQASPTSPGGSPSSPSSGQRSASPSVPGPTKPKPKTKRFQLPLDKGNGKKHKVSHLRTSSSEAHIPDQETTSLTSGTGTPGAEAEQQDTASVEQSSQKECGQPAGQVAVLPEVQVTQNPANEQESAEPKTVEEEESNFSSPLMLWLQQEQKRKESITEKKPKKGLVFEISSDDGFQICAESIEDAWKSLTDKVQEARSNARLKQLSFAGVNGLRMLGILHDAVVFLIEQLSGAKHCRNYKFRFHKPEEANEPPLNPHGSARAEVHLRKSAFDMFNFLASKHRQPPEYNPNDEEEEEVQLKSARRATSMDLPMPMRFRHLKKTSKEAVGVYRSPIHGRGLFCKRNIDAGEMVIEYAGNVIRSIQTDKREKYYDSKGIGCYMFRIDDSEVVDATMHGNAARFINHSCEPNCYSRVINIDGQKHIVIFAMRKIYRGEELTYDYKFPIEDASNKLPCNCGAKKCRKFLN

SMILES | outcome | pIC50
N#Cc1ccc(OCCCN2CCC(C(O)(c3ccccc3)C3CCCC3)CC2)nc1 (stereo not given) | inactive | 
N#Cc1ccc(OCCCN2CCC(C(O)(c3cccc(F)c3)c3nccs3)CC2)cc1 (stereo not given) |  | 7.71
NS(=O)(=O)c1ccc(OCCCN2CCC(C(O)(c3cccc(F)c3)c3nccs3)CC2)cc1 (stereo not given) |  | 7.36
N#Cc1ccc(OCCCN2CCC(C(O)(c3cccnc3)C3CCCC3)CC2)cc1 (stereo not given) |  | 6.15
N#Cc1ccc(OCCCN2CCC(C(O)(c3cc(F)cc(F)c3)c3ccccn3)CC2)cc1 (stereo not given) |  | 7.36
